From PubChem BioAssay AID1963985 (Molecular Pharmacology Branch, DTP, NCI, 2024)

Test system: 252836-082-R-J2-PDC tumor spheroids, viability
Test: Anticancer human tumor 252836-082-R-J2-PDC patient-derived head and neck squamous cell carcinoma cell line growth inhibition [PI3K]
Conditions: spheroids with HUVEC and MSC; for IC50: curve of first compound; for viability, T/C: stronger effect = lower value; active means viability on the fitted dose curve at most 10% of control; inactive means the rest
Text: Combinatorial screen of targeted agents with the PI3K inhibitors inavolisib, alpelisib, duvelisib, and copanlisib in multi-cell type tumor spheroids
A high-throughput screen of multi-cell type tumor spheroids was designed to identify active combinations of targeted small molecules and PI3K pathway inhibitors. Complex spheroids include a stromal component modeled by human endothelial cells (HUVEC) and fibroblasts modeled by human mesenchymal stem cells (MSCs). The concentration ranges selected for each drug and investigational agent were based upon clinically achievable concentrations if the clinical Cmax of the agent was known.
Compounds. The drugs and investigational agents: inavolisib (NSC800729), alpelisib (NSC765974), duvelisib (NSC772469), copanlisib (NSC816437), ipatasertib (NSC767898), afuresertib (NSC778305), talazoparib (NSC767125), sapanisertib (NSC764658), selumetinib (NSC741078), tovorafenib (DAY101, NSC766906), vemurafenib (NSC761431), ravoxertinib (NSC781343), sotorasib (NSC818433), MRTX1133 (NSC 836407), abemaciclib (NSC 768073), palbociclib (NSC758247), venetoclax (NSC 766270), SY5609 (NSC837396), enzalutamide (NSC755605), and darolutamide (NSC825331), were obtained from the National Cancer Institute (NCI) Developmental Therapeutics Program Chemical Repository. The FDA-approved anticancer drug set is available from the NCI Developmental Therapeutics Program. […] The stock solutions were prepared in dimethyl sulfoxide (DMSO, Sigma-Aldrich, St. Louis, MO, cat. D2650) at 800-fold the tested concentration and stored at -70 degrees C prior to their use. All drugs and investigational agents were tested over a range starting from a high concentration at or near the clinical Cmax and decreasing in half-log increments. If the clinical Cmax for an agent had not been determined, the highest concentration tested was 10 microM.
Cell Culture. All cells were maintained in an incubator at 37 degrees C and 5% CO2 with 95% humidity. The PDC lines were cultured according to standard operating procedures established by the NCI PDMR (https://pdmr.cancer.gov/sops/default.htm). All PDCs were thawed and cultured in Matrigel-coated flasks prepared with a working solution of 1X Ham's F-12 nutrient mix, without supplementation (Invitrogen, Waltham, MA, cat. 11765054), 100 U/mL penicillin-streptomycin (Invitrogen, cat. 15140122), and 2.5% Matrigel (Corning Inc., Corning, NY, cat. 354248) for the first three passages. The 354836-022-R-J1-PDC, 475296-252-R-J1-PDC, and 997726-040-R-J2-PDC lines were cultured in 6A media, which includes advanced DMEM/F-12 (Thermo Fisher Scientific, cat. 12634028), 10 mM HEPES (Thermo Fisher Scientific, cat. 15630080), 1X GlutaMAX supplement (Thermo Fisher Scientific, cat. 35050061), 0.1 mg/mL primocin (InvivoGen, San Diego, CA, cat. ant-pm-2), 10% defined fetal bovine serum, heat inactivated (HyClone Laboratories Inc., Logan, UT, cat. SH30070.03HI), 50% L-WRN conditioned media (ATCC, cat. CRL-3276), 1.25 mM N-Acetyl-L-cysteine (Sigma-Aldrich, cat. A9165), 10 mM nicotinamide (Sigma-Aldrich, cat. N0636), 1X B-27 supplement (Thermo Fisher Scientific, cat. 17504044), 1X N-2 supplement (Thermo Fisher Scientific, cat. 17502048), and 10 microM Y-27632 dihydrochloride (Tocris Bioscience, Bristol, United Kingdom, cat. 1254). The 624824-186-R-J2-PDC line was cultured in 6C/Colon 1B media, which includes all 6A media components plus 50 ng/mL human EGF recombinant protein (Thermo Fisher Scientific, cat. PHG0311). […]

[1] = second compound 0.00316 µM, first compound 0.0316 µM
[2] = second compound 0.00316 µM, first compound 0.1 µM
[3] = second compound 0.01 µM, first compound 0.0316 µM
[4] = second compound 0.01 µM, first compound 0.1 µM
[5] = second compound 0.0316 µM, first compound 0.0316 µM
[6] = second compound 0.0316 µM, first compound 0.1 µM
[7] = second compound 0.1 µM, first compound 0.0316 µM
[8] = second compound 0.1 µM, first compound 0.1 µM
[9] = second compound 0.316 µM, first compound 0.0316 µM
[10] = second compound 0.316 µM, first compound 0.1 µM
[11] = second compound 1 µM, first compound 0.0316 µM
[12] = second compound 1 µM, first compound 0.1 µM
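Further: spheroids exposed to agents for seven days before readout.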
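Wherever viability, T/C is given: percent of vehicle DMSO control viability so 100% = untreated growth.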

CC(=O)c1c(C)c2cnc(Nc3ccc(N4CCNCC4)cn3)nc2n(C2CCCC2)c1=O + CC(Nc1ccc2c(c1)OCCn1cc(N3C(=O)OCC3C(F)F)nc1-2)C(N)=O
< 0.316 nM: IC50 (second compound 1 µM)
inactive: viability, T/C (second compound 0.00316 µM, first compound 0.000316 µM) 102% | viability, T/C (second compound 0.00316 µM, first compound 0.001 µM) 91.6% | viability, T/C (second compound 0.00316 µM, first compound 0.00316 µM) 94.5% | viability, T/C (second compound 0.00316 µM, first compound 0.01 µM) 89.8% | viability, T/C [1] 98.2% | viability, T/C [2] 105% | viability, T/C (second compound 0.01 µM, first compound 0.000316 µM) 97.1% | viability, T/C (second compound 0.01 µM, first compound 0.001 µM) 84.9% | viability, T/C (second compound 0.01 µM, first compound 0.00316 µM) 93.7% | viability, T/C (second compound 0.01 µM, first compound 0.01 µM) 89.2% | viability, T/C [3] 83.9% | viability, T/C [4] 87.9% | viability, T/C (second compound 0.0316 µM, first compound 0.000316 µM) 90.8% | viability, T/C (second compound 0.0316 µM, first compound 0.001 µM) 76.1% | viability, T/C (second compound 0.0316 µM, first compound 0.00316 µM) 74.1% | viability, T/C (second compound 0.0316 µM, first compound 0.01 µM) 70.7% | viability, T/C [5] 81.4% | viability, T/C [6] 82.4% | viability, T/C (second compound 0.1 µM, first compound 0.000316 µM) 68.8% | viability, T/C (second compound 0.1 µM, first compound 0.001 µM) 68.9% | viability, T/C (second compound 0.1 µM, first compound 0.00316 µM) 69.8% | viability, T/C (second compound 0.1 µM, first compound 0.01 µM) 70.8% | viability, T/C [7] 66.5% | viability, T/C [8] 67.5% | viability, T/C (second compound 0.316 µM, first compound 0.000316 µM) 54.9% | viability, T/C (second compound 0.316 µM, first compound 0.001 µM) 53.6% | viability, T/C (second compound 0.316 µM, first compound 0.00316 µM) 65.1% | viability, T/C (second compound 0.316 µM, first compound 0.01 µM) 50.7% | viability, T/C [9] 62.2% | viability, T/C [10] 55.7% | viability, T/C (second compound 1 µM, first compound 0.000316 µM) 47.5% | viability, T/C (second compound 1 µM, first compound 0.001 µM) 45.6% | viability, T/C (second compound 1 µM, first compound 0.00316 µM) 41.9% | viability, T/C (second compound 1 µM, first compound 0.01 µM) 42.4% | viability, T/C [11] 44.9% | viability, T/C [12] 45.1%
> 100 nM: IC50 (second compound 0.00316 µM) | IC50 (second compound 0.01 µM) | IC50 (second compound 0.0316 µM) | IC50 (second compound 0.1 µM) | IC50 (second compound 0.316 µM)

CNC(=O)c1ccc(N2C(=S)N(c3ccc(C#N)c(C(F)(F)F)c3)C(=O)C2(C)C)cc1F + CC(Nc1ccc2c(c1)OCCn1cc(N3C(=O)OCC3C(F)F)nc1-2)C(N)=O
inactive: viability, T/C [1] 97% | viability, T/C [2] 84.2% | viability, T/C (second compound 0.00316 µM, first compound 0.316 µM) 92.5% | viability, T/C (second compound 0.00316 µM, first compound 1 µM) 91.6% | viability, T/C (second compound 0.00316 µM, first compound 3.16 µM) 102% | viability, T/C (second compound 0.00316 µM, first compound 10 µM) 84.1% | viability, T/C [3] 96.5% | viability, T/C [4] 99.9% | viability, T/C (second compound 0.01 µM, first compound 0.316 µM) 82% | viability, T/C (second compound 0.01 µM, first compound 1 µM) 89.1% | viability, T/C (second compound 0.01 µM, first compound 3.16 µM) 103% | viability, T/C (second compound 0.01 µM, first compound 10 µM) 98% | viability, T/C [5] 90.8% | viability, T/C [6] 81.7% | viability, T/C (second compound 0.0316 µM, first compound 0.316 µM) 80.2% | viability, T/C (second compound 0.0316 µM, first compound 1 µM) 77.1% | viability, T/C (second compound 0.0316 µM, first compound 3.16 µM) 75.1% | viability, T/C (second compound 0.0316 µM, first compound 10 µM) 78.9% | viability, T/C [7] 68.9% | viability, T/C [8] 69.5% | viability, T/C (second compound 0.1 µM, first compound 0.316 µM) 73.7% | viability, T/C (second compound 0.1 µM, first compound 1 µM) 66% | viability, T/C (second compound 0.1 µM, first compound 3.16 µM) 61.5% | viability, T/C (second compound 0.1 µM, first compound 10 µM) 67.9% | viability, T/C [9] 55.4% | viability, T/C [10] 58.3% | viability, T/C (second compound 0.316 µM, first compound 0.316 µM) 53% | viability, T/C (second compound 0.316 µM, first compound 1 µM) 51.9% | viability, T/C (second compound 0.316 µM, first compound 3.16 µM) 61.9% | viability, T/C (second compound 0.316 µM, first compound 10 µM) 52.3% | viability, T/C [11] 46.3% | viability, T/C [12] 44% | viability, T/C (second compound 1 µM, first compound 0.316 µM) 43.2% | viability, T/C (second compound 1 µM, first compound 1 µM) 50.5% | viability, T/C (second compound 1 µM, first compound 3.16 µM) 51.4% | viability, T/C (second compound 1 µM, first compound 10 µM) 45.8%
< 31.6 nM: IC50 (second compound 1 µM)
> 10000 nM: IC50 (second compound 0.00316 µM) | IC50 (second compound 0.01 µM) | IC50 (second compound 0.0316 µM) | IC50 (second compound 0.1 µM) | IC50 (second compound 0.316 µM)
